According to ChEMBL document CHEMBL5579843, “Multimechanism biological profiling of tetrahydro-β-carboline analogues as selective HDAC6 inhibitors for the treatment of Alzheimer's disease” (Eur J Med Chem, 2024):
Active and inactive are the calls of the source. No cut-off for these calls is given here.

Key:
SH-SY5Y [1] = experiment: Neuroprotective activity against H2O2-induced oxidative damage in human SH-SY5Y cells assessed as cell survival rate at 10 uM pretreated for 4 hrs followed by 200 uM H2O2 stimulation and measured after 24 hrs by MTT assay relative to control; type: functional; settings: time 28 hrs
PC-12 [2] = experiment: Neuroprotective activity against H2O2-induced oxidative damage in rat PC-12 cells assessed as reduction in ROS level at 10 uM pretreated for 4 hrs followed by H2O2 stimulation and measured after 24 hrs by DCFH-DA staining based fluorescence microscopic analysis; type: functional, cell-based; settings: time 28.0 hrs
SH-SY5Y [3] = experiment: Neuroprotective activity against H2O2-induced oxidative damage in human SH-SY5Y cells assessed as increase in cell survival pretreated for 4 hrs followed by 200 uM H2O2 stimulation and measured after 24 hrs by MTT assay; type: functional, cell-based; settings: dose 1-10 µM, time 28.0 hrs
PC-12 [4] = experiment: Induction of neurite outgrowth in rat PC-12 cells assessed as increase in neuronal growth at 10 uM measured after 48 hrs by light microscopic analysis relative to control; type: functional
PC-12 [5] = experiment: Neuroprotective activity against H2O2-induced oxidative damage in rat PC-12 cells assessed as inhibition of apoptosis by measuring increase in Bcl-2 protein expression pretreated for 4 hrs followed by H2O2 stimulation and measured after 24 hrs by Western blot analysis; type: functional, cell-based; settings: dose 1-10 µM, time 28.0 hrs
PC-12 [6] = experiment: Neuroprotective activity against H2O2-induced oxidative damage in rat PC-12 cells assessed as reduction in intracellular LDH level by measuring residual activity at 10 uM pretreated for 4 hrs followed by H2O2 stimulation and measured after 24 hrs relative to control; type: functional; settings: time 28 hrs
PC-12 [7] = experiment: Neuroprotective activity against H2O2-induced oxidative damage in rat PC-12 cells assessed as inhibition of apoptosis by measuring decrease in PARP protein expression pretreated for 4 hrs followed by H2O2 stimulation and measured after 24 hrs by Western blot analysis; type: functional, cell-based; settings: dose 1-10 µM, time 28.0 hrs
[8] = Antioxidant activity assessed as DPPH scavenging activity incubated for 0.5 hrs by absorbance based assay; type: functional
SH-SY5Y [9] = experiment: Neuroprotective activity against 6-OHDA-induced oxidative damage in human SH-SY5Y cells assessed as increase in cell survival at 1 to 10 uM pretreated for 4 hrs followed by 100 uM 6-OHDA stimulation and measured after 24 hrs by MTT assay; type: functional, cell-based; settings: dose 1-10 µM, time 28.0 hrs
PC-12 [10] = experiment: Induction of neurite outgrowth in rat PC-12 cells assessed as increase in number of neurites per cells at 1 to 10 uM measured after 48 hrs by light microscopic analysis; type: functional, cell-based; settings: dose 1-10 µM
PC-12 [11] = experiment: Inhibition of HDAC6 in rat PC-12 cells assessed as increase in acetylated alpha-tubulin level incubated for 6 hrs by Western blot analysis; type: cell-based; settings: dose 0.1-10 µM
PC-12 [12] = experiment: Induction of neurite outgrowth in rat PC-12 cells assessed as increase in average neuronal length at 1 to 10 uM measured after 48 hrs by light microscopic analysis; type: functional, cell-based; settings: dose 1-10 µM
Histone deacetylase 2 = Histone deacetylase 2 (Homo sapiens, UniProt Q92769); experiment: Inhibition of HDAC2 (unknown origin)
Danio rerio [13] = organism: Danio rerio; experiment: (§1) Effect on anxiety-like behavior in scopolamine induced zebrafish alzheimer disease model assessed as exploratory behavior in upper part of aquarium by measuring increase in swimming speed at 1 mg/L pretreated with scopolamine for 30 mins followed by compound addition for 3 mins by novel tank diving test; type: functional, organism-based
PC-12 [14] = experiment: Neuroprotective activity against H2O2-induced oxidative damage in rat PC-12 cells assessed as increase in cell survival pretreated for 4 hrs followed by 800 uM H2O2 stimulation and measured after 24 hrs by MTT assay; type: functional, cell-based; settings: dose 1-10 µM, time 28.0 hrs
PC-12 [15] = experiment: Induction of neurite outgrowth in rat PC-12 cells measured after 48 hrs by light microscopic analysis; type: functional, cell-based; settings: dose 1-10 µM
PC-12 [16] = experiment: (§2) Neuroprotective activity against H2O2-induced oxidative damage in rat PC-12 cells assessed as inhibition of apoptosis by measuring dead cells at 10 uM pretreated for 4 hrs followed by H2O2 stimulation and measured after 24 hrs by Annexin V-FITC/PI staining based flow cytometry analysis (reference value: 5.10%); type: functional; design: scale not given: the % may be the effect or the level left; settings: time 28 hrs
PC-12 [17] = experiment: Upregulation of beta-3 tubulin protein expression in rat PC-12 cells measured after 24 hrs by Western blot analysis; type: functional, cell-based; settings: dose 1-10 µM
[18] = Antioxidant activity assessed as ABTS radical scavenging activity measured after 30 mins by absorbance based analysis; type: functional
PC-12 [19] = experiment: Neuroprotective activity against 6-OHDA-induced oxidative damage in rat PC-12 cells assessed as increase in cell survival at 1 to 10 uM pretreated for 4 hrs followed by 500 uM 6-OHDA stimulation and measured after 24 hrs by MTT assay; type: functional, cell-based; settings: dose 1-10 µM, time 28.0 hrs
PC-12 [20] = experiment: Induction of neurite outgrowth in rat PC-12 cells assessed as increase in neuronal protrusions at 10 uM measured after 48 hrs by light microscopic analysis; type: functional, cell-based
PC-12 [21] = experiment: Neuroprotective activity against H2O2-induced oxidative damage in rat PC-12 cells assessed as increase in Nrf2 protein expression at 10 uM pretreated for 4 hrs followed by H2O2 stimulation and measured after 24 hrs by Western blot analysis; type: functional, cell-based; settings: time 28.0 hrs
PC-12 [22] = experiment: Neuroprotective activity against H2O2-induced oxidative damage in rat PC-12 cells assessed as cell survival rate at 10 uM pretreated for 4 hrs followed by 800 uM H2O2 stimulation and measured after 24 hrs by MTT assay relative to control; type: functional; settings: time 28 hrs, read-out: Survival
PC-12 [23] = experiment: Upregulation of GAP-43 protein expression in rat PC-12 cells measured after 24 hrs by Western blot analysis; type: functional, cell-based; settings: dose 1-10 µM
PC-12 [24] = experiment: Neuroprotective activity against H2O2-induced oxidative damage in rat PC-12 cells assessed as reduction in intracellular LDH level by measuring residual activity at 1 uM pretreated for 4 hrs followed by H2O2 stimulation and measured after 24 hrs relative to control; type: functional; settings: time 28 hrs
PC-12 [25] = experiment: Neuroprotective activity against H2O2-induced oxidative damage in rat PC-12 cells assessed as increase in catalase protein expression at 10 uM pretreated for 4 hrs followed by H2O2 stimulation and measured after 24 hrs by Western blot analysis; type: functional, cell-based; settings: time 28.0 hrs
PC-12 [26] = experiment: as §2, with “live” for “dead”, “81.7%)” for “5.10%)”; type: functional; design: scale not given: the % may be the effect or the level left; settings: time 28 hrs
PC-12 [27] = experiment: Neuroprotective activity against H2O2-induced oxidative damage in rat PC-12 cells assessed as SOD activity at 10 uM pretreated for 4 hrs followed by H2O2 stimulation and measured after 24 hrs by WST-8 assay; type: functional; settings: time 28 hrs
PC-12 [28] = experiment: as §2, with “late apoptotic” for “dead”, “10.9%)” for “5.10%)”; type: functional; design: scale not given: the % may be the effect or the level left; settings: time 28 hrs
PC-12 [29] = experiment: as §2, with “early apoptotic” for “dead”, “2.32%)” for “5.10%)”; type: functional; design: scale not given: the % may be the effect or the level left; settings: time 28 hrs
PC-12 [30] = experiment: Neuroprotective activity against H2O2-induced oxidative damage in rat PC-12 cells assessed as increase in Prx II protein expression measured after 24 hrs by Western blot analysis; type: functional, cell-based; settings: dose 1-10 µM
PC-12 [31] = experiment: Neuroprotective activity against H2O2-induced oxidative damage in rat PC-12 cells assessed as reduction in intracellular LDH level by measuring residual activity at 5 uM pretreated for 4 hrs followed by H2O2 stimulation and measured after 24 hrs relative to control; type: functional; settings: time 28 hrs
Danio rerio [32] = organism: Danio rerio; experiment: as §1, with “increase in total swimming distance” for “increase in swimming speed”, “total swimming distance at 1” for “in swimming speed at 1”; type: functional, organism-based
Danio rerio [33] = organism: Danio rerio; experiment: Cognitive improvement ability in scopolamine induced zebrafish alzheimer disease model assessed as improvement in spatial memory by measuring increase in activity at enriched chamber region at 1 mg/L pretreated with scopolamine for 30 mins followed by compound addition for 3 mins by T-maze test; type: functional, organism-based

Sequence of Histone deacetylase 2 (Q92769 whole entry): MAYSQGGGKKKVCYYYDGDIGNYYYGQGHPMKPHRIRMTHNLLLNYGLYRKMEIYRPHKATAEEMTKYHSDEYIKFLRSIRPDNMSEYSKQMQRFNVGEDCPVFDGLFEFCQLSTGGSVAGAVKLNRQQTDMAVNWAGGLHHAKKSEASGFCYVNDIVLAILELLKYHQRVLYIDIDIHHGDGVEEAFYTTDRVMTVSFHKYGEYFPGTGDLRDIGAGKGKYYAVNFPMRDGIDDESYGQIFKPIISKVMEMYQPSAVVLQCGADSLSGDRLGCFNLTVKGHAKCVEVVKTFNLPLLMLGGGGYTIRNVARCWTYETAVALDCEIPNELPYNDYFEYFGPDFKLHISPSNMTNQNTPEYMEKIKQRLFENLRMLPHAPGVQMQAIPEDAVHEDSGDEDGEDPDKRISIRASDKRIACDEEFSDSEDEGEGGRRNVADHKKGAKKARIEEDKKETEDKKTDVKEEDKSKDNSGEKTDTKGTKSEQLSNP

In the case of O=C(NO)c1ccc(CN2CCc3c(n(CC4CC4)c4ccc(F)cc34)C2)cc1, the Activity (SH-SY5Y [1]) is reported as 78%, the Activity (PC-12 [2]) is reported as “Active” and the Activity (SH-SY5Y [3]) is reported as “Dose-Dependent Effect”. The Activity (PC-12 [4]) was 15.3%, the Activity (PC-12 [5]) was “Dose-Dependent Effect” and the Activity (PC-12 [6]) was 35.9%. The Activity (PC-12 [7]) was “Dose-Dependent Effect”, the IC50 [8] was 22.5 µM and the Activity (SH-SY5Y [9]) was “Active”. For the same molecule, the Activity (PC-12 [10]) was “Active”, the inhibition (PC-12 [11]) was “Dose-Dependent Effect” and the Activity (PC-12 [12]) was “Active”. The IC50 (Histone deacetylase 2) was 19.3 µM, the Activity (Danio rerio [13]) was “Active” and the Activity (PC-12 [14]) was “Dose-Dependent Effect”. For the same molecule, the Activity (PC-12 [15]) was “Dose-Dependent Effect”, the Activity (PC-12 [16]) was 1.12% and the Activity (PC-12 [17]) was “Dose-Dependent Effect”. For the same molecule, the IC50 [18] was 10.4 µM, the Activity (PC-12 [19]) was “Active” and the Activity (PC-12 [20]) was “Active”. For the same molecule, the Activity (PC-12 [21]) was “Active”, the viability at 10 µM (PC-12 [22]) was 89.7% and the Activity (PC-12 [23]) was “Dose-Dependent Effect”. For the same molecule, the Activity (PC-12 [24]) was 74.3%, the Activity (PC-12 [25]) was “Active” and the Activity (PC-12 [26]) was 91.5%. The Activity (PC-12 [27]) was 17.16 U/mg, the Activity (PC-12 [28]) was 3.17% and the Activity (PC-12 [29]) was 4.22%. The Activity (PC-12 [30]) was “Dose-Dependent Effect”, the Activity (PC-12 [31]) was 50.2% and the Activity (Danio rerio [32]) was “Active”. For the same molecule, the Activity (Danio rerio [33]) was “Active”.
